Patent US8680155B2, “Synthesis and antitumor activity of novel bis(benzylidene-benzenamine)disulfides” (Kaohsiung Medical University, priority 2011, dated 2014)

Columns and labels:
A375 = assay: MTT survival, A375 melanoma; assay type: cell-based, human; conditions: A375, 10 μM
Method: (§1) Next, in vitro cytotoxicity of the multiple compounds in various cell lines was evaluated, which also was performed using MTT colorimetric assay. […] Comparing breast cancer cells MCF-7 with other cancer cells, most selected compounds had higher inhibition activity to MCF-7 cells. Therefore, breast cancer cells MCF-7 were chosen to be the research target in the following experiments.

293T = assay: MTT survival, 293T kidney cancer; assay type: cell-based, human
Method: as §1

H1335 = assay: MTT survival, H1335 lung cancer; assay type: cell-based, human; conditions: H1335, 10 μM
Method: as §1

A549 = assay: MTT survival, A549 lung cancer; assay type: cell-based, human; conditions: A549, 10 μM
Method: as §1

Cal-27 = assay: MTT survival, Cal-27 oral cancer; assay type: cell-based, human; conditions: Cal-27, 10 μM
Method: as §1

Ca-922 = assay: MTT survival, Ca-922 oral cancer; assay type: cell-based, human; conditions: Ca-922, 10 μM
Method: as §1

A2058 = assay: MTT survival, A2058 melanoma; assay type: cell-based, human; conditions: A2058, 10 μM
Method: as §1

MCF-7 = assay: MTT survival, MCF-7 breast cancer; assay type: cell-based, human; conditions: MCF-7, 10 μM
Method: as §1

[1] = system: breast cancer cells MCF-7; assay: Cell cycle analysis by flow cytometry (PI staining); assay type: cell-based, human; conditions: MCF-7, 5 μM, 24 hours; control 11.54%
Method: This experiment was performed by treating breast cancer cells MCF-7 with compounds, and then cell cycle was analyzed using flow cytometry known by the skilled person in the art. Firstly, breast cancer cells MCF-7 were treated with the prepared compounds (5 μM) for 24 hours and stained with propidium iodide (PI). Approximately 10000 cells from each sample were analyzed with FACScan flow cytometer and software. […] The sub-G1 DNA Peaks for compounds 4, 5, 7, 18, 21, 23 and 24 were 20.64%, 17.92%, 26.22%, 11.95%, 19.85%, 4.35% and 33.89% respectively (data not shown), while the sub-G1 DNA peak for control (without any drug treatment) was 11.54%.

HOP-92 = assay: MTT cytotoxicity, HOP-92 non-small cell lung cancer; assay type: cell-based; conditions: HOP-92, MTT
Method: (§2) For confirming the cytotoxicity of bis(benzylidene-benzenamine)disulfides of the invention on various cancer cells, the well known MTT (3-(4,5-dimethylthiazol-2-yl)-2,5-diphenyltetrazolium bromide) colorimetric assay in this art was performed, and the method was not detailedly described herein. Please refer to Table 3, compound 12 was selected from compounds 1 to 24 to proceed cytotoxicity experiment.

NCI-H226 = assay: MTT cytotoxicity, NCI-H226 non-small cell lung cancer; assay type: cell-based
Method: as §2

HCT-15 = assay: MTT cytotoxicity, HCT-15 colon cancer; assay type: cell-based; conditions: HCT-15, MTT
Method: as §2

SNB-75 = assay: MTT cytotoxicity, SNB-75 central nervous system cancer; assay type: cell-based; conditions: SNB-75, MTT
Method: as §2

LOX MVI = assay: MTT cytotoxicity, LOX MVI melanoma; assay type: cell-based
Method: as §2

MALME-3M = assay: MTT cytotoxicity, MALME-3M melanoma; assay type: cell-based
Method: as §2

SK-MEL-5 = assay: MTT cytotoxicity, SK-MEL-5 melanoma; assay type: cell-based; conditions: SK-MEL-5, MTT
Method: as §2

IGROV1 = assay: MTT cytotoxicity, IGROV1 ovarian cancer; assay type: cell-based
Method: as §2

T-47D = assay: MTT cytotoxicity, T-47D breast cancer; assay type: cell-based
Method: as §2

[2] = system: selected cancer cell lines; assay: MTT cytotoxicity, mean over cancer cell lines; assay type: cell-based; conditions: read-out: mean 50% growth inhibition (GI50)
Method: as §2

mouse melanoma cells B16 = assay: MTT growth inhibition on murine melanoma cells (FIG. 1); assay type: cell-based; conditions: 10 μM, 48 hours
Method: In addition, for recognizing whether the prepared disulfides had cytotoxicity to normal cells and murine cells, human dermal fibroblasts and mouse melanoma cells B16 were selected as the models using MTT colorimetric assay. First, fibroblasts or B16 cells were seeded in 96-well culture plate at 2500 cells per well and cultivated overnight until cell attachment. Each compound (10 μM) was added into the culture media in triplicate and incubated for 48 hours, and finally MTT reagent was added into each well to detect absorbance.
Please refer to FIG. 1, which illustrates the growth inhibition of various compounds to human dermal fibroblast and B16 cells.

[3] = system: phosphorylated p38 protein; assay: Phosphorylated p38 expression by immunoblotting in MCF-7 cells; assay type: cell-based, human; conditions: MCF-7, 24-hour treatment, different concentrations
Method: P38 protein in p38 mitogen-activated protein kinase (MAPK) pathway was chosen to be the index of apoptosis in this experiment, and phosphorylated p38 expression was evaluated using immunoblotting assay known by the skilled person in the art. Cellular protein was harvested after the 24-hour treatment of compound 24 on MCF-7 cells, and then resolved with sodium dodecyl sulfate (SDS)-polyacrylamide gel electrophoresis and developed using immunoblotting. […] In combination with aforementioned experimental results, compound 24 and other compounds could induce cancer cell apoptosis.

melanoma cells B16 tumor = assay: Antitumor activity in B16 tumor-bearing mice; assay type: in vivo; conditions: injection into sole of feet, B16 in C57BL/6 mice
Method: Firstly, a total of 5×10^6 melanoma cells B16 were inoculated into female C57BL/6 mice (about 19˜21 grams/7 to 9 weeks). […] When tumor reached about 4 mm×4 mm in diameter, mice were separated into groups. Each group had four mice in each experiment. Tumor volume were majored by calipers each two days after compound injection into each sole of feet of mice or without compound injection (control), and tumor volume was calculated by following formula: Tumor volume=[…] (Equation I)

Compound | Survival (% control) of compound (10 μM) (A375) [% control] | Survival (% control) of compound (10 μM) (293T) [% control] | Survival (% control) of compound (10 μM) (H1335) [% control] | Survival (% control) of compound (10 μM) (A549) [% control] | Survival (% control) of compound (10 μM) (Cal-27) [% control] | Survival (% control) of compound (10 μM) (Ca-922) [% control] | Survival (% control) of compound (10 μM) (A2058) [% control] | Survival (% control) of compound (10 μM) (MCF-7) [% control] | sub-G1 DNA peak [1] [%] | also measured
Cc1cc(C(=Nc2ccccc2)SSC(=Nc2ccccc2)c2ccc([N+](=O)[O-])c(C)c2)ccc1[N+](=O)[O-] [Compound 1] | 90.3 ± 0.05 | 76.5 ± 0.19 | 69.8 ± 0.13 | 71.5 ± 0.09 | 100.9 ± 0.09 | 80.8 ± 0.08 |  |  |  | 
O=[N+]([O-])c1ccc(C(=Nc2ccc(C(F)(F)F)cc2)SSC(=Nc2ccc(C(F)(F)F)cc2)c2ccc([N+](=O)[O-])cc2)cc1 [Compound 4] | 84.6 ± 0.08 | 64.6 ± 0.28 | 66.0 ± 0.14 | 65.4 ± 0.11 | 102.5 ± 0.06 | 80.1 ± 0.08 | 92.6 ± 0.05 | 59.6 ± 0.28 | 20.64 | 
O=[N+]([O-])c1ccc(C(=Nc2ccc(Cl)cc2)SSC(=Nc2ccc(Cl)cc2)c2ccc([N+](=O)[O-])cc2)cc1 [Compound 5] | 79.4 ± 0.11 | 70.9 ± 0.24 | 75.8 ± 0.10 | 82.4 ± 0.06 | 100.1 ± 0.07 | 79.4 ± 0.08 | 97.5 ± 0.02 | 54.3 ± 0.32 | 17.92 | 
Cc1cc(C(=Nc2ccc(Cl)cc2)SSC(=Nc2ccc(Cl)cc2)c2ccc([N+](=O)[O-])c(C)c2)ccc1[N+](=O)[O-] [Compound 7] | 92.4 ± 0.04 | 71.2 ± 0.23 | 67.4 ± 0.13 | 78.7 ± 0.07 | 101.7 ± 0.09 | 96.2 ± 0.02 | 99.6 ± 0.02 | 51.7 ± 0.34 | 26.22 | 
Cc1cc([N+](=O)[O-])ccc1N=C(SSC(=Nc1ccc([N+](=O)[O-])cc1C)c1ccc(C(F)(F)F)cc1)c1ccc(C(F)(F)F)cc1 [Compound 12] |  |  |  |  |  |  |  |  |  | GI50 (HOP-92): 0.175 µM; GI50 (NCI-H226): 0.427 µM; GI50 (HCT-15): 0.388 µM; GI50 (SNB-75): 0.141 µM; GI50 (LOX MVI): 0.304 µM; GI50 (MALME-3M): 0.252 µM; GI50 (SK-MEL-5): 0.262 µM; GI50 (IGROV1): 0.217 µM; GI50 (T-47D): 0.221 µM; GI50 [2]: 0.372 µM
Cc1ccc(N=C(SSC(=Nc2ccc(C)c([N+](=O)[O-])c2)c2ccc(C(F)(F)F)cc2)c2ccc(C(F)(F)F)cc2)cc1[N+](=O)[O-] [Compound 17] | 103.2 ± 0.02 | 75.3 ± 0.21 | 81.4 ± 0.08 | 76.9 ± 0.07 | 107.1 ± 0.08 | 82.1 ± 0.07 |  |  |  | 
Cc1c(N=C(SSC(=Nc2cccc([N+](=O)[O-])c2C)c2ccc(F)cc2)c2ccc(F)cc2)cccc1[N+](=O)[O-] [Compound 18] | 91.5 ± 0.04 | 71.1 ± 0.23 | 70.0 ± 0.13 | 75.5 ± 0.08 | 94.9 ± 0.07 | 79.4 ± 0.09 | 95.9 ± 0.02 | 33.1 ± 0.47 | 11.95 | 
Cc1ccc([N+](=O)[O-])cc1N=C(SSC(=Nc1cc([N+](=O)[O-])ccc1C)c1ccc(F)cc1)c1ccc(F)cc1 [Compound 21] | 81.1 ± 0.10 | 32.8 ± 0.52 | 80.6 ± 0.08 | 62.1 ± 0.12 | 76.6 ± 0.20 | 66.7 ± 0.13 | 76.3 ± 0.15 | 13.8 ± 0.60 | 19.85 | 
O=[N+]([O-])c1cc(N=C(SSC(=Nc2ccc(F)c([N+](=O)[O-])c2)c2ccc(C(F)(F)F)cc2)c2ccc(C(F)(F)F)cc2)ccc1F [Compound 23] | 94.3 ± 0.03 | 57.8 ± 0.33 | 80.2 ± 0.08 | 64.4 ± 0.12 | 92.4 ± 0.16 | 65.8 ± 0.14 | 93.2 ± 0.04 | 57.1 ± 0.30 | 4.35 | growth inhibition / apoptosis in murine melanoma B16 (mouse melanoma cells B16): significantly made
Cc1c(N=C(SSC(=Nc2cccc([N+](=O)[O-])c2C)c2ccc(C(F)(F)F)cc2)c2ccc(C(F)(F)F)cc2)cccc1[N+](=O)[O-] [Compound 24] | 59.5 ± 0.22 | 24.2 ± 0.59 | 26.0 ± 0.32 | 53.4 ± 0.15 | 73.5 ± 0.22 | 45.5 ± 0.22 | 34.9 ± 0.42 | 8.6 ± 0.64 | 33.89 | growth inhibition / apoptosis in murine melanoma B16 (mouse melanoma cells B16): significantly made; phosphorylation of p38 protein [3]: dependent on the concentration; tumor volume over time (melanoma cells B16 tumor; 2 mg/kg): not markedly increased; tumor volume compared to the untreated group (melanoma cells B16 tumor; 4 mg/kg): significantly suppressed
